# In article PMC10584170, “Machine learning-based phenotypic imaging to characterise the targetable biology of Plasmodium falciparum male gametocytes for the development of transmission-blocking antimalarials” (PLOS Pathogens, 2023):
# Like-named read-outs stand apart in the source and are kept apart here.
# Key:
# [1] = system: P. falciparum male gametocytes; experiment: P. falciparum Dual Gamete Formation Assay (PfDGFA), male readout (exflagellation); assay type: cell-based, Plasmodium falciparum NF54; settings: for Selectivity Ratio M: HepG2 Tox50 versus male IC50; for inhibition at 2 µM / IC50: Plasmodium falciparum; for IC50: PfDGFA, 24 h incubation with gametocytes before induction, exflagellation readout, read-out: Male IC50
# Experimental: (§1) P. falciparum NF54 (originally isolated from an imported malaria case in the Netherlands in the 1980s; BEI Resources, cat. No. MRA-1000) strain asexual parasites were maintained between 0.3–5% parasitaemia by regular passage in complete culture medium (RPMI supplemented with 25 mM HEPES, 50 μg ml^−1 hypoxanthine, 4.8 g l^−1 NaHCO3, 2mM L-glutamine, 5% pooled type AB serum, 0.5% Albumax II (Gibco)) at 4% haematocrit in washed whole blood (National Blood and Transfusion Service or Centro de Transfusiones de la Comunidad de Madrid CTCM) under a 1% O2/3% CO2/96% N2 environment. Gametocytes were induced by seeding culture flasks at 2% parasitaemia/4% haematocrit and subjecting them to daily medium changes for 14 days whilst maintaining a temperature of 37°C at all times. On Day 14, the maturity of gametocytes was assessed by quantifying male gametogenesis (exflagellation). A 20 μl sample of gametocyte culture was mixed with equal volume of ookinete medium (complete culture medium supplemented with 0.1 μM xanthurenic acid) at room temperature and transferred to a haemocytometer. After 20 min at room temperature, exflagellation was accurately quantified as described in Delves et al. 2016 [17].
# (§2) The Pf DGFA was performed as described in Delves et al. 2016 [17]. […] Plates were then incubated for 24 h at 37°C in a humidified box under a 1% O2/3% CO2/96% N2 gas mix. Gametogenesis was triggered by addition of 10 μl per well of ookinete medium + 0.27 μg ml^-1 Cy3-labelled anti-Pfs25 antibody. Plates were incubated on a metal block at 4°C for 4 min to ensure even cooling, then 28°C for a further 4 min. Exflagellation was recorded by capturing 10 frames over 1 s under brightfield illumination using a x4 objective with a 1.5x zoom (effectively x6) attached to an automated Nikon Ti fluorescence microscope. After recording exflagellation, plates were incubated for a further 24 h in the dark at 28°C to ensure maximal expression of Pfs25 by female gametes. The plates were then returned to the microscope and female gametes imaged at x6 using fluorescence microscopy.
# (§3) Exflagellation centres and female gametes were quantified using custom image analysis pipelines developed within ICY Bioimage Analysis (https://icy.bioimageanalysis.org/).
# [2] = system: P. falciparum female gametocytes; experiment: P. falciparum Dual Gamete Formation Assay (PfDGFA), female readout (Pfs25-positive female gametes); assay type: cell-based, Plasmodium falciparum NF54; settings: for Selectivity ratio F: HepG2 Tox50 versus female IC50; for inhibition at 2 µM / IC50: Plasmodium falciparum; for IC50: PfDGFA, 24 h incubation with gametocytes before induction, female gamete readout, read-out: Female IC50
# Experimental: as §1, §2, §3
# [3] = PfDGFA at 2µM, 24h preincubation with gametocytes prior to induction of gametogenesis, replicate R1
# [4] = PfDGFA at 2µM, 24h preincubation with gametocytes prior to induction of gametogenesis, replicate R4
# [5] = PfDGFA at 2µM, 24h preincubation, average of replicates
# [6] = PfDGFA at 2µM, 24h preincubation with gametocytes prior to induction of gametogenesis, replicate R3
# [7] = 2µM, 24h preincubation, number of replicates with >50% inhibition in the male readout
# [8] = 2µM, 24h preincubation, number of replicates with >50% inhibition in the female readout
# [9] = 2µM, 24h preincubation with gametocytes prior to induction of gametogenesis, average of replicates
# [10] = 2µM, 24h preincubation with gametocytes prior to induction of gametogenesis, replicate R1
# [11] = 2µM, 24h preincubation with gametocytes prior to induction of gametogenesis, replicate R3
# [12] = 2µM, 24h preincubation with gametocytes prior to induction of gametogenesis, replicate R4
smiles,measurement,setting,value
OC1CCN(c2cc(-c3ccccn3)nc(-c3ccccn3)n2)CC1 [TCMDC-123786],% inhibition male (individual replicates) R1,[1]; [3],-14.8%
same,% inhibition male (individual replicates) R4,[1]; [4],-28.8%
same,Average inhibition male (%),[1]; [5],-7.4%
same,% inhibition female (individual replicates) R1,[2]; [3],-1.4%
same,% inhibition female (individual replicates) R3,[2]; [6],-6.8%
same,% inhibition female (individual replicates) R4,[2]; [4],3.7%
same,Average inhibition female (%),[2]; [5],0.215%
Cc1cc(C(=O)OCC(=O)Nc2c(C)n(C)n(-c3ccccc3)c2=O)c(C)n1-c1ccc(F)cc1 [TCMDC-123794],HitlevelM,[1]; [7],3
same,Selectivity Ratio M,[1],52.65
same,inhibition at 2 µM,"[1]; 2µM, 24h preincubation with gametocytes prior to induction of gametogenesis, average of replicates, read-out: Average inhibition male (%)",57.2%
same,inhibition at 2 µM,"[1]; 2µM, 24h preincubation with gametocytes prior to induction of gametogenesis, replicate R1, read-out: % inhibition male (individual replicates) R1",63.3%
same,inhibition at 2 µM,"[1]; 2µM, 24h preincubation with gametocytes prior to induction of gametogenesis, replicate R2, read-out: % inhibition male (individual replicates) R2",40.1%
same,inhibition at 2 µM,"[1]; 2µM, 24h preincubation with gametocytes prior to induction of gametogenesis, replicate R3, read-out: % inhibition male (individual replicates) R3",55.8%
same,inhibition at 2 µM,"[1]; 2µM, 24h preincubation with gametocytes prior to induction of gametogenesis, replicate R4, read-out: % inhibition male (individual replicates) R4",69.6%
same,IC50,[1],1.9 µM
same,HitlevelF,[2]; [8],2
same,Selectivity ratio F,[2],69.69
same,inhibition at 2 µM,"[2]; 2µM, 24h preincubation with gametocytes prior to induction of gametogenesis, average of replicates, read-out: Average inhibition female (%)",48.8%
same,inhibition at 2 µM,"[2]; 2µM, 24h preincubation with gametocytes prior to induction of gametogenesis, replicate R1, read-out: % inhibition female (individual replicates) R1",29.7%
same,inhibition at 2 µM,"[2]; 2µM, 24h preincubation with gametocytes prior to induction of gametogenesis, replicate R2, read-out: % inhibition female (individual replicates) R2",52.6%
same,inhibition at 2 µM,"[2]; 2µM, 24h preincubation with gametocytes prior to induction of gametogenesis, replicate R3, read-out: % inhibition female (individual replicates) R3",40.8%
same,inhibition at 2 µM,"[2]; 2µM, 24h preincubation with gametocytes prior to induction of gametogenesis, replicate R4, read-out: % inhibition female (individual replicates) R4",72.3%
same,IC50,[2],1430 nM
N#CCSc1nnc(-c2ccccc2)c2ccccc12 [TCMDC-123867],% inhibition male (individual replicates) R1,[1]; [3],-3.0%
same,% inhibition male (individual replicates) R3,[1]; [6],10.5%
same,% inhibition male (individual replicates) R4,[1]; [4],-3.8%
same,Average inhibition male (%),[1]; [5],1.3%
same,% inhibition female (individual replicates) R1,[2]; [3],9.7%
same,% inhibition female (individual replicates) R3,[2]; [6],-27.1%
same,% inhibition female (individual replicates) R4,[2]; [4],6.9%
same,Average inhibition female (%),[2]; [5],-4.3%
CC1(C)N=C(N)N=C(N)N1c1ccc(Br)cc1.Cl [TCMDC-123959],Average inhibition male (%),[1]; [9],-8.5%
same,% inhibition male (individual replicates) R1,[1]; [10],15.3%
same,% inhibition male (individual replicates) R3,[1]; [11],4.6%
same,% inhibition male (individual replicates) R4,[1]; [12],-63.1%
same,HitlevelM,[1]; [7],0
same,Average inhibition female (%),[2]; [9],18.2%
same,% inhibition female (individual replicates) R1,[2]; [10],15.6%
same,% inhibition female (individual replicates) R3,[2]; [11],12.6%
same,% inhibition female (individual replicates) R4,[2]; [12],26.1%
same,HitlevelF,[2]; [8],0
CC1(C)N=C(N)N=C(N)N1c1cccc(Cl)c1.Cl [TCMDC-123960],% inhibition male (individual replicates) R1,[1]; [3],4.7%
same,% inhibition male (individual replicates) R3,[1]; [6],-1.4%
same,% inhibition male (individual replicates) R4,[1]; [4],-9.8%
same,Average inhibition male (%),[1]; [5],3.0%
same,% inhibition female (individual replicates) R1,[2]; [3],5.3%
same,% inhibition female (individual replicates) R3,[2]; [6],-21.5%
same,% inhibition female (individual replicates) R4,[2]; [4],5.4%
same,Average inhibition female (%),[2]; [5],-0.8%
Br.C[C@@H](COc1ccc(-c2ccccc2)cc1)CON1C(N)=NC(N)=NC1(C)C [TCMDC-124029],Average inhibition male (%),[1]; [9],12.1%
same,% inhibition male (individual replicates) R1,[1]; [10],13.7%
same,% inhibition male (individual replicates) R3,[1]; [11],-5.2%
same,% inhibition male (individual replicates) R4,[1]; [12],7.3%
same,HitlevelM,"[1]; 2µM, 24h preincubation, hits selected on >50% inhibition in the male readout across replicates",0
same,Activity,"[1]; PfDGFA at 2µM, 24h preincubation, hit = >50% inhibition in male or female readout in at least 3 replicates, 0 = no class assigned",0
same,Average inhibition female (%),[2]; [9],5.2%
same,% inhibition female (individual replicates) R1,[2]; [10],-6.6%
same,% inhibition female (individual replicates) R3,[2]; [11],32.8%
same,% inhibition female (individual replicates) R4,[2]; [12],-1.3%
same,HitlevelF,"[2]; 2µM, 24h preincubation, hits selected on >50% inhibition in the female readout across replicates",0
Br.CC(C)(C)c1ccc(Cn2c(=N)n(CC(=O)c3ccc(-c4ccccc4)cc3)c3ccccc32)cc1 [TCMDC-124030],% inhibition male (individual replicates) R1,[1]; [3],-15.4%
same,% inhibition male (individual replicates) R3,[1]; [6],-16.6%
same,% inhibition male (individual replicates) R4,[1]; [4],-3.3%
same,Average inhibition male (%),[1]; [5],-8.2%
same,% inhibition female (individual replicates) R1,[2]; [3],-3.8%
same,% inhibition female (individual replicates) R3,[2]; [6],-20.2%
same,% inhibition female (individual replicates) R4,[2]; [4],-0.7%
same,Average inhibition female (%),[2]; [5],-8.6%
O=C(Nc1ccc([N+](=O)[O-])cc1)c1nn(-c2ccccc2)cc1/N=C/c1cccc(O)c1 [TCMDC-124108],% inhibition male (individual replicates) R1,[1]; [3],-5.9%
same,% inhibition male (individual replicates) R3,[1]; [6],-27.6%
same,% inhibition male (individual replicates) R4,[1]; [4],-9.8%
same,Average inhibition male (%),[1]; [5],-10.2%
same,% inhibition female (individual replicates) R1,[2]; [3],7.8%
same,% inhibition female (individual replicates) R3,[2]; [6],-29.5%
same,% inhibition female (individual replicates) R4,[2]; [4],-3.2%
same,Average inhibition female (%),[2]; [5],-2.4%
c1ccc2[nH]c(CN(Cc3nc4ccccc4[nH]3)Cc3nc4ccccc4[nH]3)nc2c1 [TCMDC-124132],Selectivity Ratio M,[1],14.81
same,inhibition at 2 µM,"[1]; PfDGFA at 2µM, 24h preincubation with gametocytes, average of replicates, read-out: Average inhibition male (%)",78.3%
same,inhibition at 2 µM,"[1]; PfDGFA at 2µM, 24h preincubation with gametocytes, replicate R1, read-out: % inhibition male (individual replicates) R1",68.8%
same,inhibition at 2 µM,"[1]; PfDGFA at 2µM, 24h preincubation with gametocytes, replicate R2, read-out: % inhibition male (individual replicates) R2",80.9%
same,inhibition at 2 µM,"[1]; PfDGFA at 2µM, 24h preincubation with gametocytes, replicate R4, read-out: % inhibition male (individual replicates) R4",85.2%
same,IC50,[1],6.75 µM
same,HitlevelM,"[1]; number of replicates with >50% inhibition in the male readout, 2µM",3
same,Selectivity ratio F,[2],10.00
same,inhibition at 2 µM,"[2]; PfDGFA at 2µM, 24h preincubation with gametocytes, average of replicates, read-out: Average inhibition female (%)",5%
same,inhibition at 2 µM,"[2]; PfDGFA at 2µM, 24h preincubation with gametocytes, replicate R1, read-out: % inhibition female (individual replicates) R1",1.1%
same,inhibition at 2 µM,"[2]; PfDGFA at 2µM, 24h preincubation with gametocytes, replicate R2, read-out: % inhibition female (individual replicates) R2",-7.6%
same,inhibition at 2 µM,"[2]; PfDGFA at 2µM, 24h preincubation with gametocytes, replicate R3, read-out: % inhibition female (individual replicates) R3",23.9%
same,inhibition at 2 µM,"[2]; PfDGFA at 2µM, 24h preincubation with gametocytes, replicate R4, read-out: % inhibition female (individual replicates) R4",2.5%
same,IC50,[2],> 10000 nM
same,HitlevelF,"[2]; number of replicates with >50% inhibition in the female readout, 2µM",0
